# Assay results reported in patent publication US10077241B2 (Janssen Pharmaceutica NV, priority 2014, dated 2018).
# Structures can show the parent of a compound that is named as a salt.
# Experiments:
# TGR5 (STC1 cell line) = target: T1, TGR5 (STC1 cell line) (Mus musculus, UniProt Q80SS6); assay: STC1 cAMP Agonist EC50 Determination
# T1 sequence (Q80SS6 1-329): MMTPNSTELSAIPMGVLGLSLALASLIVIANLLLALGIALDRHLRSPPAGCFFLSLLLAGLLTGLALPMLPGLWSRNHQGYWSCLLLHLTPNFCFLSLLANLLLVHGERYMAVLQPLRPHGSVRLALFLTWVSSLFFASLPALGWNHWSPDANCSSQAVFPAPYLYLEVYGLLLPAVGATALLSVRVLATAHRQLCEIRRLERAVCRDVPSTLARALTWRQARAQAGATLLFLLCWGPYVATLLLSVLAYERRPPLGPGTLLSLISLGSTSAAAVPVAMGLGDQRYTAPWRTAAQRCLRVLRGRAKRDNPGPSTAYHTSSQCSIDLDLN
# [1] = target: T2, TGR5 (NCI-H716 cell line) (Homo sapiens, UniProt Q8TDU6); assay: NCI-H716 cAMP Agonist EC50 Determination
# T2 sequence (Q8TDU6 1-330): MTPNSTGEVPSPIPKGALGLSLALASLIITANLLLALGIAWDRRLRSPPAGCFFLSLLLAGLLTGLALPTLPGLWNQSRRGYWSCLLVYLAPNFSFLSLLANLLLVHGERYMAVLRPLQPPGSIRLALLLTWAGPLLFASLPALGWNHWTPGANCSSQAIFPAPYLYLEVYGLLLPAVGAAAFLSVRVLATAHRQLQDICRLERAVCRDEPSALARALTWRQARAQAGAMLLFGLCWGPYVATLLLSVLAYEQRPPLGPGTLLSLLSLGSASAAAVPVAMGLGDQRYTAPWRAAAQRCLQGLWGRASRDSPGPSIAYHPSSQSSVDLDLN
# Description: Cells were cultured in suspension using RPM containing: 10% HI FBS, and 1× Penn/Strep and were cryostored (1E7 cells/vial in 5% DMSO).
# A Normalized signal (NS) is generated by the Envision for each well ((Read 1/Read 2)×10,000).
# The data from the Envision were imported to an Excel worksheet. nM cAMP is calculated for each well from the cAMP standard curves located on each plate by first calculating the slope and deriving the intercept (b).
# [formula] [formula] [formula] EC50 values were determined from a 4-point fit (Hill equation) of a single 11-point compound dosing.
Compound,EC50 (TGR5 (STC1 cell line)),EC50 [1]
"COc1cc(C2(C)CCCc3nc(SCc4c(F)cc(C(=O)NCCOCCOCCOCCO)cc4F)n(-c4ccc(F)cc4)c32)ccc1Cl (centres unmarked) [Example 84, 4-((7-(4-chloro-3-methoxyphenyl)-1-(4-fluorophenyl)-7-methyl-4,5,6,7-tetrahydro-1H-benzo[d]imidazol-2-ylthio)methyl)-3,5-difluoro-N-(2-(2-(2-(2-hydroxyethoxy)ethoxy)ethoxy)ethyl)benzamide trifluoroacetic acid]",0.34 µM,38.7 µM
"COC(=O)[C@H](CCCNC(=N)N)NC(=O)c1cc(F)c(CSc2nc3c(n2-c2ccc(F)cc2)C(C)(c2ccc(Cl)c(OC)c2)CCC3)c(F)c1 (stereo partly drawn) [Example 82, (S)-methyl 2-(4-((7-(4-chloro-3-methoxyphenyl)-1-(4-fluorophenyl)-4,5,6,7-tetrahydro-7-methyl-1H-benzo[d]imidazol-2-ylthio)methyl)-3,5-difluorobenzamido)-5-guanidinopentanoate trifluoroacetic acid]",0.18 µM,15.2 µM
"COc1cc(C2CCCc3nc(SCc4c(F)cc(CCCO)cc4F)n(-c4ccc(F)cc4)c32)ccc1Cl (centres unmarked) [Example 41, 3-(4-((7-(4-chloro-3-methoxyphenyl)-1-(4-fluorophenyl)-4,5,6,7-tetrahydro-1H-benzo[d]imidazol-2-ylthio)methyl)-3,5-difluorophenyl)propan-1-ol trifluoroacetic acid]",0.89 µM,> 50 µM
"COc1cc(C2(C)CCCc3nc(SCc4c(F)cc(OCCN(C)C)cc4F)n(-c4ccc(F)cc4)c32)ccc1Cl (centres unmarked) [Example 80, 2-(4-((7-(4-chloro-3-methoxyphenyl)-1-(4-fluorophenyl)-4,5,6,7-tetrahydro-7-methyl-1H-benzo[d]imidazol-2-ylthio)methyl)-3,5-difluorophenoxy)-N,N-dimethylethanamine]",2.94 µM,19.2 µM
"COc1ccc(C2(C)CCCc3nc(SCc4c(F)cccc4[N+](=O)[O-])n(-c4ccc(F)cc4)c32)cc1OC (centres unmarked) [Example 115, 7-(3,4-dimethoxyphenyl)-2-((2-fluoro-6-nitrobenzyl)thio)-1-(4-fluorophenyl)-7-methyl-4,5,6,7-tetrahydro-1H-benzo[d]imidazole]",0.22 µM,2.6 µM
"COc1ccc(C2(C)CCCc3nc(SCc4c(F)cc(CCN(C)C)cc4F)n(-c4ccc(F)cc4)c32)cc1OC (centres unmarked) [Example 111, 2-(4-(((7-(3,4-dimethoxyphenyl)-1-(4-fluorophenyl)-7-methyl-4,5,6,7-tetrahydro-1H-benzo[d]imidazol-2-yl)thio)methyl)-3,5-difluorophenyl)-N,N-dimethylethanamine]",0.2 µM,1.41 µM
"COc1cc(C2CCCc3nc(SCc4c(F)cc(C(=O)O)cc4F)n(-c4ccc(F)cc4)c32)ccc1Cl (centres unmarked) [Example 12, 4-((7-(4-chloro-3-methoxyphenyl)-1-(4-fluorophenyl)-4,5,6,7-tetrahydro-1H-benzo[d]imidazol-2-ylthio)methyl)-3,5-difluorobenzoic acid trifluoroacetic acid]",19.7 µM,> 50 µM
"COc1ccc(C2(C)CCCc3nc(SCc4ccccc4)n(-c4ccc(F)cc4)c32)cc1OC (centres unmarked) [Example 99, 2-(benzylthio)-7-(3,4-dimethoxyphenyl)-1-(4-fluorophenyl)-7-methyl-4,5,6,7-tetrahydro-1H-benzo[d]imidazole]",2.39 µM,33.1 µM
"COc1cc(C2(C)CCCc3nc(SCc4c(F)cc(C(=O)N(C)C)cc4F)n(-c4ccc(F)cc4)c32)ccc1Cl (centres unmarked) [Example 92, 4-([[7-(4-chloro-3-methoxyphenyl)-1-(4-fluorophenyl)-7-methyl-4,5,6,7-tetrahydro-1H-1,3-benzodiazol-2-yl]sulfanyl]methyl)-3,5-difluoro-N,N-dimethylbenzamide]",0.12 µM,18.1 µM
"COc1ccc(C2CCCc3nc(SCc4c(F)cc(OCCN5CCCC5)cc4F)n(-c4ccc(F)cc4)c32)cc1OC (centres unmarked) [Example 69, 2-((2,6-difluoro-4-(2-(pyrrolidin-1-yl)ethoxy)benzyl)thio)-7-(3,4-dimethoxyphenyl)-1-(4-fluorophenyl)-4,5,6,7-tetrahydro-1H-benzo[d]imidazole]",0.85 µM,7.97 µM
"C/N=C(\N)N/N=C/CCc1cc(F)c(CSc2nc3c(n2-c2ccc(F)cc2)C(c2ccc(Cl)c(OC)c2)CCC3)c(F)c1 (centres unmarked) [Example 48, (1E,2E)-2-(3-(4-((7-(4-chloro-3-methoxyphenyl)-1-(4-fluorophenyl)-4,5,6,7-tetrahydro-1H-benzo[d]imidazol-2-ylthio)methyl)-3,5-difluorophenyl)propylidene)-N′-methylhydrazinecarboximidamide hydrochloride]",0.35 µM,> 50 µM
"COc1cc(C2CCCc3nc(SCc4c(F)ccc(F)c4Cl)n(-c4ccc(F)cc4)c32)ccc1Cl (centres unmarked) [Example 20, 2-[[(2-chloro-3,6-difluorophenyl)methyl]sulfanyl]-7-(4-chloro-3-methoxyphenyl)-1-(4-fluorophenyl)-4,5,6,7-tetrahydro-1H-1,3-benzodiazole]",0.51 µM,> 50 µM
"COc1cc(C2(C)CCCc3nc(SCc4c(F)cc(C(=O)N[C@@H](CCCNC(=N)N)C(=O)O)cc4F)n(-c4ccc(F)cc4)c32)ccc1Cl (stereo partly drawn) [Example 83, (S)-2-(4-((7-(4-chloro-3-methoxyphenyl)-1-(4-fluorophenyl)-4,5,6,7-tetrahydro-7-methyl-1H-benzo[d]imidazol-2-ylthio)methyl)-3,5-difluorobenzamido)-5-guanidinopentanoic acid trifluoroacetic acid]",0.13 µM,17.2 µM
"COc1ccc(C2(C)CCCc3nc(SCc4c(Cl)cccc4Cl)n(-c4ccc(F)cc4)c32)cc1OC (centres unmarked) [Example 114, 2-((2,6-dichlorobenzyl)thio)-7-(3,4-dimethoxyphenyl)-1-(4-fluorophenyl)-7-methyl-4,5,6,7-tetrahydro-1H-benzo[d]imidazole]",1.64 µM,25.7 µM
"COc1cc(C2CCCc3nc(SCc4c(F)cncc4Cl)n(-c4ccc(F)cc4)c32)ccc1Cl (centres unmarked) [Example 55, 7-(4-chloro-3-methoxyphenyl)-2-[[(3-chloro-5-fluoropyridin-4-yl)methyl]sulfanyl]-1-(4-fluorophenyl)-4,5,6,7-tetrahydro-1H-1,3-benzodiazole bis(trifluoroacetic acid)]",0.18 µM,> 50 µM
"COc1cc(C2CCCc3nc(SCc4c(F)cc(OCc5nnn[nH]5)cc4F)n(-c4ccc(F)cc4)c32)ccc1Cl (centres unmarked) [Example 30, 7-(4-chloro-3-methoxyphenyl)-2-([[2,6-difluoro-4-(1H-1,2,3,4-tetrazol-5-ylmethoxy)phenyl]methyl]sulfanyl)-1-(4-fluorophenyl)-4,5,6,7-tetrahydro-1H-1,3-benzodiazole]",0.96 µM,> 50 µM
"CCO/C=C/c1cc(F)c(CSc2nc3c(n2-c2ccc(F)cc2)C(C)(c2ccc(OC)c(OC)c2)CCC3)c(F)c1 (centres unmarked) [Example 110, (E)-7-(3,4-dimethoxyphenyl)-2-((4-(2-ethoxyvinyl)-2,6-difluorobenzyl)thio)-1-(4-fluorophenyl)-7-methyl-4,5,6,7-tetrahydro-1H-benzo[d]imidazole]",0.45 µM,1.18 µM
"COc1cc(C2OCCc3nc(SCc4c(F)cc(OCCOCCOCCCl)cc4F)n(-c4ccc(F)cc4)c32)ccc1Cl (centres unmarked) [Example 133, 4-(4-chloro-3-methoxyphenyl)-2-((4-(2-(2-(2-chloroethoxy)ethoxy)ethoxy)-2,6-difluorobenzyl)thio)-3-(4-fluorophenyl)-3,4,6,7-tetrahydropyrano[3,4-d]imidazole]",6.07 µM,> 50 µM
"C=C1COC(c2ccc(F)c(OC)c2)c2c1nc(SCc1c(F)cccc1Cl)n2-c1ccc(F)cc1 (centres unmarked) [Example 138, 4-(4-Fluoro-3-methoxyphenyl)-2-((2-chloro-6-fluorobenzyl)thio)-3-(4-fluorophenyl)-7-methylene-3,4,6,7-tetrahydropyrano[3,4-d]imidazole]",3.26 µM,> 50 µM
"COc1cc(C2(C)CCCc3nc(SCc4c(F)cc(C#N)cc4F)n(-c4ccc(F)cc4)c32)ccc1Cl (centres unmarked) [Example 89, 4-((7-(4-chloro-3-methoxyphenyl)-1-(4-fluorophenyl)-7-methyl-4,5,6,7-tetrahydro-1H-benzo[d]imidazol-2-ylthio)methyl)-3,5-difluorobenzonitrile trifluoroacetic acid]",2.08 µM,> 50 µM
"COc1cc(C2CCCc3nc(SCc4c(F)ccc(OCCOCCN(C)C)c4F)n(-c4ccc(F)cc4)c32)ccc1Cl (centres unmarked) [Example 35, (2-[2-[3-([[7-(4-chloro-3-methoxyphenyl)-1-(4-fluorophenyl)-4,5,6,7-tetrahydro-1H-1,3-benzodiazol-2-yl]sulfanyl]methyl)-2,4-difluorophenoxy]ethoxy]ethyl)dimethylamine hydrochloride]",3.15 µM,9.3 µM
"Cc1nc2ccc(C3OCCc4nc(SCc5c(F)cccc5Cl)n(-c5ccc(F)cc5)c43)cc2o1 (centres unmarked) [Example 135, 2-((2-chloro-6-fluorobenzyl)thio)-3-(4-fluorophenyl)-4-(2-methylbenzo[d]oxazol-6-yl)-3,4,6,7-tetrahydropyrano[3,4-d]imidazole]",3.84 µM,11 µM
